Activity calls are given as the source filed them.
Assays:
Protein Tat = Protein Tat (Human immunodeficiency virus type 1 group M subtype B (isolate HXB2)(HIV-1), UniProt P04608); format: functional;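 also: tat binding to TAR RNA read out by fluorescence polarization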
[1] = biological target: Glutathione-S-transferase (Schistosoma japonicum, UniProt Q26513); assay: biotin-GST/anti-GST TR-FRET signal inhibitors, dose response, artefact control for Vif-APOBEC3G degradation inhibitor project, biochemical (AID 1117362); format: functional
[2] = biological target: Luciferin 4-monooxygenase (Photinus pyralis, UniProt P08659); assay: firefly luciferase enzyme inhibitors, dose response, biochemical, luminescence (AID 1891)
[3] = Luminescence Cell-Based Dose Confirmation HTS to Identify Inhibitors of Platelet Dense Granule Release. [Related pubchem assays: 1663 (Primary HTS), 1678 (Summary of Project)]; format: functional
[4] = HEK293 cell cytotoxicity, dose response, cytotoxicity control, ATP luminescence, dry powder, set 3 (AID 743131); format: functional, cell-based
[5] = A Cell-Based Confirmatory Screen for Compounds that Inhibit VEEV, TC-83 (2).; format: functional
Vero [6] = assay: cells; format: functional, cell-based; conditions: Chlorocebus sabaeus
Cytochrome P450 1A2 = biological target: T1, Cytochrome P450 1A2 (Homo sapiens, UniProt P05177);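 also: PubChem cytochrome P450 panel assay, CYP1A2 panel member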
T1 sequence (P05177 whole entry): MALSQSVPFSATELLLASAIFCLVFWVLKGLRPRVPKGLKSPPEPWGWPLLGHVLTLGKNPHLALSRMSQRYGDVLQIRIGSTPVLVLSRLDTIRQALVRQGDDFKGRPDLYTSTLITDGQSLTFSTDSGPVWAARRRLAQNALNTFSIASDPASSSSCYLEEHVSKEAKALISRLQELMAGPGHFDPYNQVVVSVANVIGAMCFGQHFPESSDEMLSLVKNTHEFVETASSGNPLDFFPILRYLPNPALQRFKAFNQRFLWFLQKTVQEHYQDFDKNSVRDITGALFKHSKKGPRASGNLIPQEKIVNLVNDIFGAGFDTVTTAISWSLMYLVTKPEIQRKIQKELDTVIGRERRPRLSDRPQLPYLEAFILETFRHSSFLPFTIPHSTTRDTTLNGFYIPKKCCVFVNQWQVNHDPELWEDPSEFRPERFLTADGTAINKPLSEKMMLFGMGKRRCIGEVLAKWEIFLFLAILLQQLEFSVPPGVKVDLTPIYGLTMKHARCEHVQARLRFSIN

[7] = A Cell-Based Counter Screen testing Compounds that Inhibit VEEV TC-83, in strain KU V3526.; format: functional
Vero [8] = assay: cells; format: functional; conditions: Chlorocebus sabaeus
Cytochrome P450 3A4 = Cytochrome P450 3A4 (Homo sapiens, UniProt P08684);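 also: CYP3A4 tested as one member of a cytochrome P450 panel screen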
[9] = Vero 76 cell cytotoxicity, dose response, cytotoxicity control, set 2 (AID 602240); format: functional; conditions: Venezuelan equine encephalitis virus
[10] = HEp-2 cell cytotoxicity, dose response, cytotoxicity control for RSV inhibitor project, HTS (AID 2410); format: functional; conditions: human respiratory syncytial virus
[11] = cytotoxicity in OV-90 ovarian cancer cells, dose response, PAX8 inhibitor project, cell-based, plate reader, dry powder, SA8 (AID 743149); format: functional
[12] = PAX5 activity inhibitors, dose response, selectivity assay for PAX8 inhibitor project, cell-based, plate reader, dry powder samples (AID 743047); format: functional;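 also: HEK293 cells carrying a Pax5 driven CD19 promoter luciferase reporter; potency of inhibitors that lower reporter luminescence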
Paired box protein Pax-8 = Paired box protein Pax-8 (Homo sapiens, UniProt Q06710); assay: inhibitors of PAX8-driven TPO luciferase reporter, dose response, RMG-I cells, cherry-pick (AID 687027); format: functional, cell-based;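 also: luciferase reporter driven by Pax8 target thyroperoxidase promoter measured by SteadyGlo luminescence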
[13] = PAX2 cell-based inhibition, dose response, selectivity assay for PAX8 inhibitor project, plate reader, dry powder samples (AID 743048); format: functional;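 also: HEK293 cells carrying a WT1 promoter luciferase reporter driven by expressed Pax2; potency is for inhibition of Pax2 driven reporter signal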
[14] = cytotoxicity dependent on PAX8, dose response, cell-based, plate reader, dry powder (AID 743049); format: functional
[15] = cytotoxicity in OVCAR8 ovarian cancer cells, dose response, PAX8 project, cell-based, plate reader, dry powder samples (AID 743197); format: functional; conditions: OVCAR-8
[16] = A549 cell cytotoxicity, dose response, cytotoxicity control, 24 h, CellTiter-Glo luminescence, cherry-picks (AID 1053115); format: functional, cell-based; conditions: A549, 24 h
[17] = non-specific cell cytotoxicity, dose response, cytotoxicity control for PAX8 inhibitor project, plate reader, dry powder samples (AID 743021); format: functional, cell-based
[18] = A549 cell cytotoxicity, dose response, CellTiter-Glo luminescence, dry powder, set 17 (AID 1117284); format: functional, cell-based
[19] = HEK293T cytotoxicity, dose response, cytotoxicity control for miR-122 modulator project, cell-based, inhibitor set, cherry-pick, set 2 (AID 720697); format: functional
[20] = HEK293T cytotoxicity, dose response, cytotoxicity control for miR-122 modulator project, cell-based, activator set, cherry-pick (AID 720690); format: functional;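 also: HEK293T human cells scored for general mammalian cytotoxicity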
[21] = Late-stage results from the probe development effort to identify antagonists of arginine vasopressin receptor 1a (AVPR1a): fluorescence-based cell-based dose response AVPR1a inhibition assay.; format: functional
Vasopressin V1b receptor = Vasopressin V1b receptor (Homo sapiens, UniProt P47901); assay: Late-stage results from the probe development effort to identify antagonists of arginine vasopressin receptor 1a (AVPR1a): fluorescence-based cell-based dose response AVPR1b inhibition counterscreen assay.; format: functional
[22] = Late-stage results from the probe development effort to identify antagonists of arginine vasopressin receptor 1a (AVPR1a): fluorescence-based cell-based dose response OXTR inhibition counterscreen assay.; format: functional
Vasopressin V2 receptor = Vasopressin V2 receptor (Homo sapiens, UniProt P30518); assay: Late-stage results from the probe development effort to identify antagonists of arginine vasopressin receptor 1a (AVPR1a): fluorescence-based cell-based dose response AVPR2 inhibition counterscreen assay.; format: functional
Vasopressin V2 receptor, sequence (P30518 whole entry): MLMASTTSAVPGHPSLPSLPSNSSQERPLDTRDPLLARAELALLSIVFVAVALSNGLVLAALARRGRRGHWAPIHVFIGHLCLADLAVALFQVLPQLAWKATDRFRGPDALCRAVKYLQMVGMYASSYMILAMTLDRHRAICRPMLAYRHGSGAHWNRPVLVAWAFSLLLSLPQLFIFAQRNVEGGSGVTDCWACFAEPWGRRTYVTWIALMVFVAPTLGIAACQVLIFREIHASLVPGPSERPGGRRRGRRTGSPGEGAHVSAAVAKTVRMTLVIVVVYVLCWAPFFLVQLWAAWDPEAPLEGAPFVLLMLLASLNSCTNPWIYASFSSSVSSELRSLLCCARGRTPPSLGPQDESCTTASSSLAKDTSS

Paired box protein Pax-8, sequence (Q06710 whole entry): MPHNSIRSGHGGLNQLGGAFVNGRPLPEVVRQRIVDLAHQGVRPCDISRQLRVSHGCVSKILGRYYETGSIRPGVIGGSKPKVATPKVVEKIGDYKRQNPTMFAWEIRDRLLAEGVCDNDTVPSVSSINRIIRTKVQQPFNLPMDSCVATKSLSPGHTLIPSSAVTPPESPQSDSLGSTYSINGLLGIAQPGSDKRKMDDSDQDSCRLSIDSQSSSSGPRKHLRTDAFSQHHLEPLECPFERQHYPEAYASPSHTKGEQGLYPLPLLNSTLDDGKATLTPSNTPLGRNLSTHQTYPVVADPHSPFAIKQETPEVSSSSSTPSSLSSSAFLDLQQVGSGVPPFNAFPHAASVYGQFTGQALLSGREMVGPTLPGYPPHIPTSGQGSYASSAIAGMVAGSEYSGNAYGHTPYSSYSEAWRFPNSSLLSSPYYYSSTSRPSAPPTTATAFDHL
Vasopressin V1b receptor, sequence (P47901 whole entry): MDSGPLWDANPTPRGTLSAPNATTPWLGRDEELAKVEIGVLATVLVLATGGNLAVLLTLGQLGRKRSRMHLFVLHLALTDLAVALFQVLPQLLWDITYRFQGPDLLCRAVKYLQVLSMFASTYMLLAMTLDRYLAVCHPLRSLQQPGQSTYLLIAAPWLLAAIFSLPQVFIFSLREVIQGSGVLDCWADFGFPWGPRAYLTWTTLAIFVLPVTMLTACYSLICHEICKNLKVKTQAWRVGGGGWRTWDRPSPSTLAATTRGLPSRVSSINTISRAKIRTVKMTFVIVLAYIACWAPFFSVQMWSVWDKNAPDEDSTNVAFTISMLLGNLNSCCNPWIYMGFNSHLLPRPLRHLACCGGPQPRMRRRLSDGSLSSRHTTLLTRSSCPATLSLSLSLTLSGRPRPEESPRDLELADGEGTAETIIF
Protein Tat, sequence (P04608 whole entry): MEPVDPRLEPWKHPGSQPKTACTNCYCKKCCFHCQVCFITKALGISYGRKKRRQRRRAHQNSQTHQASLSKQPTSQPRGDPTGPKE
Glutathione-S-transferase, sequence (Q26513 whole entry): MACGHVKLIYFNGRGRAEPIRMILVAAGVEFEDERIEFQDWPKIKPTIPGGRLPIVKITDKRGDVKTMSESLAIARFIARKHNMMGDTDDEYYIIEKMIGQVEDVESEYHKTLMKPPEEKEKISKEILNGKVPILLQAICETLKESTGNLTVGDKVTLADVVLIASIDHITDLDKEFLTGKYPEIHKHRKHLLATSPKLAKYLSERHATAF
Luciferin 4-monooxygenase, sequence (P08659 whole entry): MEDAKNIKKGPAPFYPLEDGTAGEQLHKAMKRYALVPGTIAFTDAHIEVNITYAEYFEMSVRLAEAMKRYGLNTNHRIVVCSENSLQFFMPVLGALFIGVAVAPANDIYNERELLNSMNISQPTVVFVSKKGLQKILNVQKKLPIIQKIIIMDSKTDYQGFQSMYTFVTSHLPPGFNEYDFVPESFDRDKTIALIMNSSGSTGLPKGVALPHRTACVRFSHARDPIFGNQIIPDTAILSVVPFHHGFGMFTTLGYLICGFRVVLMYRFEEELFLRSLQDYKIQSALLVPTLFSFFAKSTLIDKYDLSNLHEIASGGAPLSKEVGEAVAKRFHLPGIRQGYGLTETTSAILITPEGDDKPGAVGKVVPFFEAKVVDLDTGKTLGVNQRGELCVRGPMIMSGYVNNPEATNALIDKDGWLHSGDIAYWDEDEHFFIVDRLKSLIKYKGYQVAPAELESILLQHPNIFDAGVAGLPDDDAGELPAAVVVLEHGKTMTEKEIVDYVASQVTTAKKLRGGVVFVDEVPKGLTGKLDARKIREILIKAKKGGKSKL
Cytochrome P450 3A4, sequence (P08684 whole entry): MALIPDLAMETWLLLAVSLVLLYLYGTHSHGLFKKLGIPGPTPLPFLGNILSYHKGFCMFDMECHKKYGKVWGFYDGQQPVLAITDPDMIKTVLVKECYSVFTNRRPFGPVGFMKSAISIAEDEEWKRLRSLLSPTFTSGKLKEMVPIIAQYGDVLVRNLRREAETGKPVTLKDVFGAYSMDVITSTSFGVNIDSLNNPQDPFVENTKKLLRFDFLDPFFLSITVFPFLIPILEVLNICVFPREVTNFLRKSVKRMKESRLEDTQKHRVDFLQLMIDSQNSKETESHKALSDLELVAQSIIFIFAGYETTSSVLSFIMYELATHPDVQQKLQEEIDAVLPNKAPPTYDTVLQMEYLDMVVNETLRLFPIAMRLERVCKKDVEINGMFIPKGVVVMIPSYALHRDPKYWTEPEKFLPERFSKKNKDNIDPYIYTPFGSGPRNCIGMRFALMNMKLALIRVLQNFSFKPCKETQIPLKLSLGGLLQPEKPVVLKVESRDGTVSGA

In the case of `O=C(NC(=S)N1CCCc2ccccc21)c1ccccc1`, the IC50 (Protein Tat) was > 100 µM (active), the IC50 [1] was 90.8 µM (active) and the EC50 [2] was > 112 µM (not active). For the same compound, the EC50 [3] was > 112 µM (not active).

For `Cc1ccccc1OCCn1c(S)nc2ccccc21`, the AC50 [4] was 0.344 µM (active).

For `CCOC(=O)c1ccc(Nc2nc(=O)c3cccnc3s2)cc1`, the IC50 [5] was 10.8 µM (active), the IC50 (Vero [6]) was 6.32 µM (active) and the AC50 (Cytochrome P450 1A2) was 14.1 µM (inconclusive). The IC50 (cells) was 9.32 µM (active), the IC50 [7] was 7.07 µM (active) and the CC50 (Vero [8]) was > 25 µM (active). For the same compound, the AC50 (Cytochrome P450 3A4) was “inconclusive”, the CC50 [9] was > 50 µM (active) and the CC50 [10] was 22.4 µM (active).

With `N#C[C@@H]1[C@@H](c2ccc(-c3ccccc3F)cc2)[C@@H](CO)N1C(=O)C1CCC1` the AC50 [11] was > 70 µM (inactive), the AC50 [12] was 60.8 µM (active) and the AC50 (Paired box protein Pax-8) was 8.88 µM (active). For the same compound, the AC50 [13] was > 70 µM (inactive) and the AC50 [14] was > 70 µM (inactive).

For `C[C@H](O)C#Cc1ccc2c(c1)O[C@@H](CN(C)Cc1ccc(-c3ccccc3)cc1)[C@@H](C)CN([C@H](C)CO)S2(=O)=O`, the AC50 [15] was > 70 µM (inactive), the AC50 [16] was 48.6 µM (active) and the AC50 [17] was 46.3 µM (active). For the same compound, the AC50 (Paired box protein Pax-8) was 4.57 µM (active), the AC50 [18] was > 52 µM (inactive) and the AC50 [19] was 21.6 µM (active). For the same compound, the AC50 [20] was 22.8 µM (active).

With `N#Cc1ccnc(N2CCC(C(=O)N(CC3CC3)c3ccc(Cl)cc3)CC2)c1` the IC50 [21] was 0.0628 µM (active), the IC50 (Vasopressin V1b receptor) was > 50 µM (inactive) and the IC50 [22] was 4.6 µM (active). The IC50 (Vasopressin V2 receptor) was > 50 µM (inactive).

— ChEMBL document CHEMBL1201862, “PubChem BioAssay data set” (2004)
